# Results reported in patent US3943137A, “Acronycine derivatives” (University of Kansas Endowment Association, priority 1973, dated 1976).
# Read-outs that look alike come from different tables or passages of the source.
# What was measured:
# Solubility = type: physicochemical; conditions: water
# mouse neoplasms = conditions: cited from earlier work
# adenocarcinoma 755 = conditions: oral and subcutaneous routes; cited from earlier work
# C-1498 leukemia = conditions: oral and subcutaneous routes; cited from earlier work
# X-5563 myeloma = conditions: oral and subcutaneous routes; cited from earlier work
# [1] = subcutaneous; cited from earlier work
# [2] = intravenous; several instances; autopsy; cited from earlier work
# [3] = acronycine free base; cited from earlier work
compound,measurement,setting,value
COc1cc2c(c3c1c(=O)c1ccccc1n3C)C=CC(C)(C)O2 [acronycine],solubility (qualitative),"Solubility; acetone, benzene, listed as base","soluble in acetone and benzene, insoluble in water"
same,solubility,Solubility; read-out: solubility in water,2 to 3 µg/mL
same,reduction in the size of tumors,"mouse neoplasms; aqueous suspension, Svoboda et al",significant reductions in the size of a number of tumors
same,activity in delayed therapy experiments,mouse neoplasms; delayed therapy,significant activity in delayed therapy experiments
same,"antitumor activity, intravenous","mouse neoplasms; intravenous, free base",only minimum activity
same,effectiveness by routes of administration,mouse neoplasms; various routes,effective by various routes of administration
same,tumors against which significant activity was demonstrated,"mouse neoplasms; wide range of dose levels, Svoboda laboratory",12 of 17
same,activity against adenocarcinoma 755,adenocarcinoma 755,significant activity
same,activity against C-1498 leukemia,C-1498 leukemia,significant activity
same,activity against X-5563 myeloma,X-5563 myeloma,significant activity
same,skin irritation or alopecia,[1],no evidence of skin irritation or alopecia
same,blockage of the circulatory system,[2],"blockage of the circulatory system was evidenced, autopsy revealing an actual aortic block by the compound itself"
same,solubility,[3],2 to 3 µg/mL
